Consider four compounds from patent US20080233206A1, “COMPOSITIONS AND METHODS FOR ANTI-INFLAMMATORY TREATMENTS” (Molecular Research Center, Inc., priority 2007, published 2008).

What is called inhibition is the percentage by which the read-out fell short of the control.

The test system of data set [1] is various cell types. As to conditions: in vitro and in vivo; cited from earlier work.
The test system of data set [2] is human lymphoma Molt-4 cells. Put plainly: Growth of human lymphoma Molt-4 cells. It counts as cell-based. As to conditions: 5 μg/ml, read-out: inhibition of cell growth. The text has this: (§1) The intestine epithelial cells have a high proliferation rate. Thus, the anti-proliferating effect of semisynthetic or synthetic tetracyclines may lead to potential side effects, especially during a long-term therapy.

The conditions of data set [3]: cited from earlier work.
In data set [4] the test system is human intestine cell line CCL-221. Nature of the data set: Growth of human intestine cell line CCL-221. The format is cell-based. As to conditions: 5 μg/ml.
Description: as §1

The conditions of data set [5]: prolonged treatment (for acne); cited from earlier work.
The mark [6] stands for this setting: human subjects, concurrently with a protein diet (Welling, 1977).

Like-named read-outs stand apart in the source and are kept apart here.

Turning to `NC(=O)C1=C(O)C[C@@H]2C[C@@H]3Cc4cccc(O)c4C(=O)C3=C(O)[C@]2(O)C1=O` [CMT-3], the “effect on cell proliferation” value in data set [1] is “inhibit proliferation”.

As for `C[C@H]1c2cccc(O)c2C(=O)C2=C(O)[C@]3(O)C(=O)C(C(N)=O)=C(O)[C@@H](N(C)C)[C@@H]3[C@@H](O)[C@@H]21` [doxycycline], the inhibition at 5 µg/mL in data set [2] is about 80%; in data set [4] it was about 60%. In addition, the serum level was 2.7 µg/mL in data set [3] (fasting subjects (Depperman, 1989)); 2.6 µg/mL in data set [3] (setting [6]); 0.45 µg/mL in data set [3] (with antacid (aluminum-magnesium hydroxide) (Depperman, 1989)).

On to `CN(C)c1ccc(O)c2c1C[C@H]1C[C@H]3[C@H](N(C)C)C(O)=C(C(N)=O)C(=O)[C@@]3(O)C(O)=C1C2=O` [minocycline], for which, in data set [5], the induced syndrome entry is reported as “drug-induced lupus”.

Consider `CN(C)[C@@H]1C(O)=C(C(N)=O)C(=O)[C@@]2(O)C(O)=C3C(=O)c4c(O)cccc4[C@@](C)(O)[C@H]3C[C@@H]12` [tetracycline, 4-(Dimethylamino)-1,4,4α,5,5α,6,11,12α-octahydro-3,6,10,12,12α-pentahydroxy-6-methyl-1,1′-dioxo-2-naphtacenecarobxamide], for which the inhibition at 5 µg/mL in data set [2] was about 20%. Besides, in data set [3] (setting [6]), the serum level was 1.8 µg/mL.
